In ChEMBL document CHEMBL1201862, “PubChem BioAssay data set” (2004):
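Five compound concentrations were applied to cells in 96-well plates for 48 hours; endpoints were derived by simple linear interpolation of the resulting dose-response curve. The concentration for 50% growth inhibition is given as GI50.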 The source made the active and inactive calls. Rule as the data show it: active = GI50 up to about 1.1 µM and inactive = higher.

How the values were obtained:
Experiment in all cases: DTP human tumour cell line panel, 48 h
[1] = system: EKVX
[2] = system: CAKI-1
[3] = system: SNB-19
[4] = system: IGROV-1
[5] = system: SW-620
[6] = system: HL-60
[7] = system: HCC 2998
[8] = system: SK-OV-3
[9] = system: SNB-78
[10] = system: UACC-257
[11] = system: U-251
[12] = system: SNB-75
[13] = system: HOP-62
[14] = system: NCI-H226
[15] = system: COLO 205
[16] = system: DMS-273
[17] = system: DMS-114
[18] = system: OVCAR-3
[19] = system: SF-295
[20] = system: UACC-62
[21] = system: MOLT-4
[22] = system: DLD-1
[23] = system: OVCAR-4
[24] = system: MCF7
[25] = system: NCI/ADR-RES
[26] = system: CCRF-CEM
[27] = system: HT-29
[28] = system: HOP-92
[29] = system: KM-20L2
[30] = system: NCI-H522
[31] = system: XF498
[32] = system: HOP-18
[33] = system: NCI-H460
[34] = system: A549
[35] = system: HCT-116
[36] = system: OVCAR-8
[37] = system: NCI-H23
[38] = system: SN12C
[39] = system: Malme-3M
[40] = system: LOX IMVI
[41] = system: SK-MEL-5
[42] = system: UO-31
[43] = system: SK-MEL-2
[44] = system: A498
[45] = system: KM12
[46] = system: SF-268
[47] = system: M19-MEL
[48] = system: SK-MEL-28
[49] = system: RPMI-8226
[50] = system: K562
[51] = system: RXF 393
[52] = system: HCT-15
[53] = system: OVCAR-5
[54] = system: SF-539
[55] = system: LXFL 529
[56] = system: M14
[57] = system: ACHN
[58] = system: SR
[59] = system: TK-10

Measured: GI50

CCOC(=O)C(C)NC(=O)N(C)C12CC3CC(CC(C3)C1)C2 (configuration not stated)
187 µM: [52]
inactive: [1] 450 µM | [2] 231 µM | [3] 412 µM | [4] 286 µM | [5] 218 µM | [6] > 96.8 µM | [7] 268 µM | [8] 237 µM | [9] 277 µM | [10] 133 µM | [11] 308 µM | [12] 77.4 µM | [13] 316 µM | [14] 233 µM | [15] 140 µM | [16] 209 µM | [17] 115 µM | [18] 149 µM | [19] 203 µM | [20] 175 µM | [21] 63.2 µM | [22] 50.7 µM | [23] 175 µM | [24] 139 µM | [25] 151 µM | [26] 138 µM | [27] 281 µM | [28] 20.7 µM | [29] 199 µM | [30] 135 µM | [31] 192 µM | [32] 210 µM | [33] 192 µM | [34] 197 µM | [35] 173 µM | [36] 265 µM | [37] 185 µM | [38] 385 µM | [39] 194 µM | [40] 116 µM | [41] 111 µM | [42] 175 µM | [43] 169 µM | [44] 116 µM | [45] 179 µM | [46] 319 µM | [47] 177 µM | [48] 317 µM | [49] 125 µM | [50] 169 µM | [51] 153 µM | [53] > 500 µM | [54] 344 µM

CC(C)=CCc1c(O)ccc2c1OC1c3ccc(O)c(CC=C(C)C)c3OCC21 (configuration not stated)
3.96 µM: [52]
inactive: [1] 5.62 µM | [2] 9.02 µM | [3] 13.6 µM | [4] 10.3 µM | [5] 6.79 µM | [6] 4.32 µM | [7] 13.2 µM | [8] 19.2 µM | [9] 12.1 µM | [10] 13.8 µM | [11] 7.67 µM | [12] 15.9 µM | [13] 9.84 µM | [14] 14 µM | [15] 17.3 µM | [16] 6.4 µM | [17] 11.4 µM | [18] 13.6 µM | [19] 11.6 µM | [20] 5.64 µM | [21] 3.14 µM | [22] 5.19 µM | [23] 11.2 µM | [24] 8.89 µM | [25] 8.09 µM | [26] 6.62 µM | [27] > 44.4 µM | [28] > 100 µM | [29] 18.7 µM | [30] 11.3 µM | [31] 17.8 µM | [32] 17.6 µM | [33] 5.15 µM | [34] 7.94 µM | [35] 5.12 µM | [36] 8.22 µM | [37] > 38.8 µM | [38] 14 µM | [39] 17 µM | [40] 6.81 µM | [41] 5.98 µM | [42] 11.7 µM | [43] 18 µM | [44] 11.9 µM | [45] 10.2 µM | [46] 11.2 µM | [47] 11.4 µM | [48] 13.4 µM | [49] 3.28 µM | [50] 4.42 µM | [51] 8.09 µM | [53] 13.9 µM | [54] 10.5 µM

CCCCCCCCCCCCCCCCCC(=O)OCC1OC(OC)C(NC(=O)N(CCCl)N=O)C(O)C1O (configuration not stated)
inactive: [2] > 100 µM | [3] 24.9 µM | [4] 32.5 µM | [5] 14.1 µM | [7] 29 µM | [55] 17.3 µM | [9] 40.4 µM | [10] 16.8 µM | [11] > 10 µM | [12] 13.8 µM | [13] > 100 µM | [14] 24.9 µM | [15] 30.3 µM | [16] 16 µM | [18] 26.9 µM | [19] 14.9 µM | [20] 2.99 µM | [21] 4.41 µM | [22] 28.1 µM | [56] 27.8 µM | [57] 15.7 µM | [23] 24 µM | [27] 20.9 µM | [29] > 10 µM | [30] 17.1 µM | [31] 20.7 µM | [32] 32.6 µM | [33] 5.96 µM | [34] 18.1 µM | [58] 9.04 µM | [36] 33.5 µM | [37] 16.4 µM | [38] 11.4 µM | [39] 26.1 µM | [40] 13.6 µM | [41] 26.3 µM | [42] 24.3 µM | [43] 45.9 µM | [45] 24.8 µM | [46] 8.3 µM | [47] 71.4 µM | [48] 21.6 µM | [49] 20.3 µM | [50] 24.6 µM | [51] 17 µM | [53] 44.2 µM | [59] 38.3 µM | [54] 9.86 µM
36.1 µM: [52]
